In patent publication US9480259B2, “Pyrazolopyrans having herbicidal and pharmaceutical properties” (BASF SE, priority 2012, dated 2016):

Target: Arabidopsis thaliana SHMT
Assay: SHMT activity assay (ED50 SHMT), coupled with N5,N10-CH2-THF dehydrogenase, NADH at 340 nm
Type: biochemical
Conditions: Table 2, Arabidopsis thaliana SHMT enzyme assay; values given as upper bounds
Procedure, shortened: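 His-tagged SHMT purified on Ni-NTA. NADH formation followed at 340 nm for 30 min; ED50 from inhibition of initial velocity.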

Row | Structure (SMILES) | EC50 [µM]
1 | Cc1n[nH]c2c1C(c1cc(Cl)cc(Oc3cccc(Cl)c3)c1)(C1CCC1)C(C#N)=C(N)O2 (centres unmarked) [Compound 2.237] | < 0.01
2 | COc1cccc(Oc2cc(Cl)cc(C3(C4CCC4)C(C#N)=C(N)Oc4[nH]nc(C)c43)c2)c1 (centres unmarked) [Compound 2.238] | < 0.01
3 | Cc1cccc(Oc2cc(Cl)cc(C3(C4CCC4)C(C#N)=C(N)Oc4[nH]nc(C)c43)c2)c1 (centres unmarked) [Compound 2.239] | < 0.1
4 | Cc1ccc(Oc2cc(Cl)cc(C3(C4CCC4)C(C#N)=C(N)Oc4[nH]nc(C)c43)c2)cc1 (centres unmarked) [Compound 2.240] | < 0.01
5 | COc1c(Br)cc(C2(C3CCC3)C(C#N)=C(N)Oc3[nH]nc(C)c32)cc1Br (centres unmarked) [Compound 2.241] | < 0.01
6 | Cc1n[nH]c2c1C(c1cc(Cl)c(F)c(Cl)c1)(C1CCC1)C(C#N)=C(N)O2 (centres unmarked) [Compound 2.242] | < 0.01
7 | N#CC1=C(N)Oc2[nH]ncc2C1(c1cc(Cl)cc(Cl)c1)C1CCC1 (centres unmarked) [Compound 2.244] | < 0.01
8 | Cc1n[nH]c2c1C(c1ccc(Cl)c(Cl)c1)(C1(F)CC1)C(C#N)=C(N)O2 (centres unmarked) [Compound 2.245] | < 0.01
9 | N#CC1=C(N)Oc2[nH]ncc2C1(c1cc(Cl)cc(Br)c1)C1CCC1 (centres unmarked) [Compound 2.248] | < 0.01
10 | Cc1n[nH]c2c1C(c1cc(Cl)cc(-c3cccc(C(F)(F)F)c3)c1)(C1CCC1)C(C#N)=C(N)O2 (centres unmarked) [Compound 2.249] | < 0.01
11 | Cc1n[nH]c2c1C(c1cc(Cl)cc(-c3ccc(C(F)(F)F)cc3)c1)(C1CCC1)C(C#N)=C(N)O2 (centres unmarked) [Compound 2.250] | < 0.01
12 | N#CC1=C(N)Oc2[nH]ncc2C1(c1cc(Br)cc(Br)c1)C1CCC1 (centres unmarked) [Compound 2.251] | < 0.01
13 | N#CC1=C(N)Oc2[nH]ncc2C1(c1cc(Cl)cc(C(F)(F)F)c1)C1CCC1 (centres unmarked) [Compound 2.252] | < 0.01
14 | COc1ccc(C2(C3CCC3)C(C#N)=C(N)Oc3[nH]ncc32)cc1Cl (centres unmarked) [Compound 2.253] | < 0.01
15 | COc1ccc(C2(C3CCCC3)C(C#N)=C(N)Oc3[nH]ncc32)cc1Cl (centres unmarked) [Compound 2.254] | < 10
16 | COc1ccc(C2(C3CCC3)C(C#N)=C(N)Oc3[nH]ncc32)cc1Br (centres unmarked) [Compound 2.255] | < 0.01
17 | N#CC1=C(N)Oc2[nH]ncc2C1(c1cc(Cl)cc(Cl)c1)C1CCCC1 (centres unmarked) [Compound 2.256] | < 10
18 | Cc1n[nH]c2c1C(c1cc(F)cc(C#N)c1)(C1CCC1)C(C#N)=C(N)O2 (centres unmarked) [Compound 2.258] | < 0.01
19 | N#CC1=C(N)Oc2[nH]ncc2C1(c1cc(Br)cc(C(F)(F)F)c1)C1CCC1 (centres unmarked) [Compound 2.259] | < 0.01

Row | Structure (SMILES) | EC50 [µM]
20 | COc1ccc(C2(C3(F)CC3)C(C#N)=C(N)Oc3[nH]nc(C)c32)cc1Cl (centres unmarked) [Compound 2.260] | < 0.01
21 | Cc1n[nH]c2c1C(c1cc(Cl)cc(-c3ccco3)c1)(C1CCC1)C(C#N)=C(N)O2 (centres unmarked) [Compound 2.262] | < 0.01
22 | Cc1n[nH]c2c1C(c1cc(Cl)cc(-c3cccs3)c1)(C1CCC1)C(C#N)=C(N)O2 (centres unmarked) [Compound 2.263] | < 0.01
23 | Cc1n[nH]c2c1C(c1cccc(OC(F)F)c1)(C1CCC1)C(C#N)=C(N)O2 (centres unmarked) [Compound 2.264] | < 0.01
24 | Cc1n[nH]c2c1C(c1ccc(F)c(OC(F)(F)F)c1)(C1CCC1)C(C#N)=C(N)O2 (centres unmarked) [Compound 2.265] | < 0.01
25 | Cc1n[nH]c2c1C(c1cc(Cl)cc(OC(F)(F)F)c1)(C1CCC1)C(C#N)=C(N)O2 (centres unmarked) [Compound 2.266] | < 0.01
26 | COc1ccc(C2(C3(F)CC3)C(C#N)=C(N)Oc3[nH]nc(C)c32)cc1C(F)(F)F (centres unmarked) [Compound 2.267] | < 0.01
27 | Cc1n[nH]c2c1C(c1ccc(N3CCCC3)c(Cl)c1)(C1CCC1)C(C#N)=C(N)O2 (centres unmarked) [Compound 2.268] | < 0.01
28 | Cc1n[nH]c2c1C(c1ccc(F)c(C#N)c1)(C1CCC1)C(C#N)=C(N)O2 (centres unmarked) [Compound 2.269] | < 0.01
29 | Cc1n[nH]c2c1C(c1cc(Cl)cc(Cl)c1)(C1CC1(F)F)C(C#N)=C(N)O2 (centres unmarked) [Compound 2.270] | < 0.01
30 | Cc1n[nH]c2c1C(c1cc(N3CCOCC3)cc(C(F)(F)F)c1)(C1CCC1)C(C#N)=C(N)O2 (centres unmarked) [Compound 2.271] | < 0.01
31 | Cc1n[nH]c2c1C(c1ccc(C(F)(F)F)c(C(F)(F)F)c1)(C1CCC1)C(C#N)=C(N)O2 (centres unmarked) [Compound 2.272] | < 0.01
32 | Cc1n[nH]c2c1C(c1cc(Cl)c(Cl)c(C(F)(F)F)c1)(C1CCC1)C(C#N)=C(N)O2 (centres unmarked) [Compound 2.273] | < 0.01
33 | N#CC1=C(N)Oc2[nH]ncc2C1(c1cc(N2CCOCC2)cc(C(F)(F)F)c1)C1CCC1 (centres unmarked) [Compound 2.274] | < 0.01
34 | Cc1n[nH]c2c1C(c1cc(Cl)cc(-c3ccsc3)c1)(C1CC1)C(C#N)=C(N)O2 (centres unmarked) [Compound 2.275] | < 0.01
35 | Cc1n[nH]c2c1C(c1cc(Cl)cc(-c3cccs3)c1)(C1CC1)C(C#N)=C(N)O2 (centres unmarked) [Compound 2.276] | < 1
36 | Cc1n[nH]c2c1C(c1cccc(C(F)F)c1)(C1CCC1)C(C#N)=C(N)O2 (centres unmarked) [Compound 2.277] | < 0.01
37 | Cc1n[nH]c2c1C(c1cccc(OC(F)(F)F)c1)(C1CCC1)C(C#N)=C(N)O2 (centres unmarked) [Compound 2.278] | < 0.01
38 | Cc1n[nH]c2c1C(c1cc(Cl)cc(C(N)=O)c1)(C1CCC1)C(C#N)=C(N)O2 (centres unmarked) [Compound 2.284] | < 0.01
